Test results as given in patent US7749981B2, “Drug-eluting stents coated with non-nucleotide P2Y12 receptor antagonist compound” (Inspire Pharmaceuticals, Inc., priority 2005, dated 2010).

Test system: washed human platelets
Experiment: Inhibition of ADP-induced platelet aggregation in washed human platelets
Format: cell-based
Method: Isolation of Platelets: Human blood is obtained from informed healthy adult volunteers. Blood is collected into one-sixth volume of acid/citrate/dextrose (ACD) buffer (85 mM sodium citrate, 65 mM citric acid, and 100 mM glucose). Collected blood is placed in a water bath at 37° C. for 30 minutes. Blood is then centrifuged at 275×g for 16 minutes at room temperature and the platelet-rich plasma is removed and centrifuged at 2200×g for 13 minutes at room temperature. The platelet pellet is resuspended in 40 mL of HEPES-buffered Tyrode's solution (137 mM NaCl, 2.7 mM KCl, 1 mM MgCl2, 2 mM CaCl2, 12 mM NaHCO3, 0.36 mM NaH2PO4, 5.5 mM glucose, 5 mM HEPES pH 7.4, 0.35% bovine serum albumin or 0.35% human serum albumin) containing 10 U/mL heparin and 5 μM (final concentration) prostaglandin 12 (PGI2). The platelet suspension is incubated in a 37° C. water bath for 10 minutes and then 5 μM (final conc.) PGI2 is added just before centrifugation at 1900×g for 8 minutes. The resulting pellet is resuspended in 40 mL of HEPES-buffered Tyrode's solution containing 5 μM (final concentration) PGI2 and then is incubated for 10 minutes in a 37° C. water bath. A small aliquot (500 μL) of the platelet suspension is removed for platelet counting. Prior to centrifugation 5 μM (final concentration) PGI2 is added to the suspension and then the suspension is centrifuged at 1900×g for 8 minutes. The pellet is resuspended at a density of 5×10^8 cells/mL in HEPES-buffered Tyrode's solution containing 0.05 U/mL apyrase.
Aggregation Studies: ADP-induced platelet aggregation is determined by measuring the transmission of light through a 0.5 ml suspension of stirred (1000 rpm) washed platelets in a lumi-aggregometer at 37° C. (Chrono-Log Corp. Havertown, Pa.). The baseline of the instrument is set using 0.5 ml of Hepes-buffered Tyrode's solution. Prior to aggregation measurements, the platelet suspension is supplemented with 1 mg/ml fibrinogen. Platelet aggregation is initiated by the addition of indicated concentrations of ADP or other agonists, and the light transmission is continuously recorded for at least 8 min. When inhibitors of platelet aggregation are tested, platelets are incubated for 2 min in the presence of indicated concentrations of inhibitor before addition of ADP or other agonists, and the response is recorded for at least 8 min. The potency of agonists and inhibitors of platelet aggregation is calculated from both the rate of aggregation and the maximal extent of aggregation obtained for each determination by fitting the data to a four-parameter logistic equation using the GraphPad software package (GraphPad Corp. San Diego, Calif.).
IC50 values represent the concentration of antagonist necessary to inhibit by 50% the aggregation elicited by a given concentration of ADP.
Platelet IC50 data were determined using washed human platelets, according to the protocol of example 14. Agonist challenge (ADP) typically in the range of 1-5 μM.

**Q.** Which IC50 (Homo sapiens, Platelet, read-out: PLATELET DATA IC50 (uM) Washed Platelets, washed human platelets, agonist challenge (ADP) typically 1-5 μM, average of two experiments or more) does the source give for `CCNC(=O)Nc1ncnc2c1ncn2C1CC(COCc2ccsc2C(=O)O)C2OC(C=Cc3ccccc3)OC21` (centres unmarked) [Compound 298, 3-{6-[6-(3-Ethyl-ureido)-purin-9-yl]-2-styryl-tetrahydro-cyclopenta[1,3]dioxol-4-ylmethoxymethyl}-thiophene-2-carboxylic acid] here?
**A.** Its IC50 is 0.081 µM.

**Q.** What about the “activity as antagonists of P2Y12-mediated platelet aggregation (in words)” value (comment on Table 1 data, washed human platelets) of the same molecule?
**A.** The value was “are active”.
